Results taken from the supplement of paper PMC10307832.

Tests used:
Assay in all cases: relative viability (nuclei count vs DMSO), 5 days (fraction); higher = more cells survive
NCI-H1915 = system: NCI-H1915
Summary of the method: (§1)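 Five library-drug doses in √10 steps were combined with a fixed anchor-drug dose, or a single drug was given alone, by pin tool to lung cancer cell lines in 1536-well plates the day after seeding. Nuclei were stained and counted after 5 days. Relative viability is the nuclei count in treated wells over that in vehicle wells, taken as the median of duplicate plates.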

EBC-1 = system: EBC-1
Summary of the method: as §1

NCI-H1793 = system: NCI-H1793
Summary of the method: as §1

NCI-H1703 = system: NCI-H1703
Summary of the method: as §1

A549 = system: A549
Summary of the method: as §1

IA-LM = system: IA-LM
Summary of the method: as §1

HCC-15 = system: HCC-15
Summary of the method: as §1

Calu-6 = system: Calu-6
Summary of the method: as §1

NCI-H1975 = system: NCI-H1975
Summary of the method: as §1

NCI-H1299 = system: NCI-H1299
Summary of the method: as §1

HARA = system: HARA
Summary of the method: as §1

SK-LU-1 = system: SK-LU-1
Summary of the method: as §1

NCI-H650 = system: NCI-H650
Summary of the method: as §1

COCC1(CO)C(=O)C2CCN1CC2 (stereo not given) [PRIMA-1MET] + CC1(C)CCC(c2ccc(Cl)cc2)=C(CN2CCN(c3ccc(C(=O)NS(=O)(=O)c4ccc(N[C@H](CCN5CCOCC5)CSc5ccccc5)c(S(=O)(=O)C(F)(F)F)c4)cc3)CC2)C1 [Navitoclax] (partner 0.5 µM) showed a relative viability (NCI-H1915; first compound 0.2 µM) of 0.766, a relative viability (NCI-H1915; first compound 0.6325 µM) of 0.586 and a relative viability (NCI-H1915; first compound 2 µM) of 0.642. It also gave a relative viability (NCI-H1915; first compound 6.325 µM) of 0.773, a relative viability (NCI-H1915; first compound 20 µM) of 0.778 and a relative viability (EBC-1; first compound 0.2 µM) of 0.379. For the same compound, the relative viability (EBC-1; first compound 0.6325 µM) was 0.37, the relative viability (EBC-1; first compound 2 µM) was 0.427 and the relative viability (EBC-1; first compound 6.325 µM) was 0.416. It also gave a relative viability (EBC-1; first compound 20 µM) of 0.151, a relative viability (NCI-H1793; first compound 0.2 µM) of 0.576 and a relative viability (NCI-H1793; first compound 0.6325 µM) of 0.446. For the same compound, the relative viability (NCI-H1793; first compound 6.325 µM) was 0.609, the relative viability (NCI-H1793; first compound 20 µM) was 0.49 and the relative viability (NCI-H1703; first compound 0.2 µM) was 1.43. For the same compound, the relative viability (NCI-H1703; first compound 0.6325 µM) was 0.891, the relative viability (NCI-H1703; first compound 2 µM) was 1.18 and the relative viability (NCI-H1703; first compound 6.325 µM) was 1.21. The relative viability (NCI-H1703; first compound 20 µM) was 0.0405, the relative viability (A549; first compound 0.2 µM) was 1.35 and the relative viability (A549; first compound 0.6325 µM) was 1.09. The relative viability (A549; first compound 2 µM) was 1.23, the relative viability (A549; first compound 6.325 µM) was 1.16 and the relative viability (A549; first compound 20 µM) was 1.08. The relative viability (IA-LM; first compound 0.2 µM) was 0.657, the relative viability (IA-LM; first compound 0.6325 µM) was 0.769 and the relative viability (IA-LM; first compound 2 µM) was 0.714. It also gave a relative viability (IA-LM; first compound 6.325 µM) of 0.949, a relative viability (IA-LM; first compound 20 µM) of 0.806 and a relative viability (HCC-15; first compound 0.2 µM) of 0.772. For the same compound, the relative viability (HCC-15; first compound 0.6325 µM) was 0.686, the relative viability (HCC-15; first compound 2 µM) was 0.694 and the relative viability (HCC-15; first compound 6.325 µM) was 0.713. The relative viability (HCC-15; first compound 20 µM) was 0.455, the relative viability (Calu-6; first compound 0.2 µM) was 0.97 and the relative viability (Calu-6; first compound 0.6325 µM) was 0.823. The relative viability (Calu-6; first compound 2 µM) was 0.845, the relative viability (Calu-6; first compound 6.325 µM) was 0.781 and the relative viability (Calu-6; first compound 20 µM) was 0.305. For the same compound, the relative viability (NCI-H1975; first compound 0.2 µM) was 1.13, the relative viability (NCI-H1975; first compound 0.6325 µM) was 1.03 and the relative viability (NCI-H1975; first compound 2 µM) was 1.12. It also gave a relative viability (NCI-H1975; first compound 6.325 µM) of 1.21, a relative viability (NCI-H1975; first compound 20 µM) of 0.96 and a relative viability (NCI-H1299; first compound 0.2 µM) of 1.14. The relative viability (NCI-H1299; first compound 0.6325 µM) was 1.04, the relative viability (NCI-H1299; first compound 2 µM) was 1.05 and the relative viability (NCI-H1299; first compound 6.325 µM) was 1.11. The relative viability (NCI-H1299; first compound 20 µM) was 1.04, the relative viability (HARA; first compound 0.2 µM) was 1.22 and the relative viability (HARA; first compound 0.6325 µM) was 1.02. It also gave a relative viability (HARA; first compound 6.325 µM) of 1.13, a relative viability (HARA; first compound 20 µM) of 1.11 and a relative viability (SK-LU-1; first compound 0.2 µM) of 0.848. It also gave a relative viability (SK-LU-1; first compound 0.6325 µM) of 1.06, a relative viability (SK-LU-1; first compound 2 µM) of 0.789 and a relative viability (SK-LU-1; first compound 6.325 µM) of 1.15. It also gave a relative viability (SK-LU-1; first compound 20 µM) of 0.0933.
Work on COCC1(CO)C(=O)C2CCN1CC2 (stereo not given) [PRIMA-1MET] + CC(C)C[C@H](NC(=O)[C@H](Cc1ccccc1)NC(=O)c1cnccn1)B(O)O [Bortezomib] (partner 0.002 µM) yielded a relative viability (NCI-H1915; first compound 0.2 µM) of 1.07, a relative viability (NCI-H1915; first compound 0.6325 µM) of 0.695 and a relative viability (NCI-H1915; first compound 2 µM) of 0.918. It also gave a relative viability (NCI-H1915; first compound 6.325 µM) of 0.764, a relative viability (NCI-H1915; first compound 20 µM) of 0.956 and a relative viability (EBC-1; first compound 0.2 µM) of 0.581. The relative viability (EBC-1; first compound 0.6325 µM) was 0.549, the relative viability (EBC-1; first compound 2 µM) was 0.572 and the relative viability (EBC-1; first compound 6.325 µM) was 0.544. It also gave a relative viability (EBC-1; first compound 20 µM) of 0.136, a relative viability (NCI-H1703; first compound 0.2 µM) of 0.568 and a relative viability (NCI-H1703; first compound 0.6325 µM) of 0.369. The relative viability (NCI-H1703; first compound 2 µM) was 0.311, the relative viability (NCI-H1703; first compound 6.325 µM) was 0.142 and the relative viability (NCI-H1703; first compound 20 µM) was 0.049. The relative viability (IA-LM; first compound 0.2 µM) was 1.02, the relative viability (IA-LM; first compound 0.6325 µM) was 0.648 and the relative viability (IA-LM; first compound 2 µM) was 0.831. For the same compound, the relative viability (IA-LM; first compound 6.325 µM) was 0.989, the relative viability (IA-LM; first compound 20 µM) was 0.903 and the relative viability (NCI-H650; first compound 0.2 µM) was 1.11. It also gave a relative viability (NCI-H650; first compound 2 µM) of 0.816, a relative viability (NCI-H650; first compound 6.325 µM) of 0.508 and a relative viability (NCI-H650; first compound 20 µM) of 0.117. The relative viability (HCC-15; first compound 0.2 µM) was 1.02, the relative viability (HCC-15; first compound 0.6325 µM) was 0.902 and the relative viability (HCC-15; first compound 2 µM) was 1.12. The relative viability (HCC-15; first compound 6.325 µM) was 0.988, the relative viability (HCC-15; first compound 20 µM) was 0.583 and the relative viability (Calu-6; first compound 0.2 µM) was 1.11. For the same compound, the relative viability (Calu-6; first compound 0.6325 µM) was 0.95, the relative viability (Calu-6; first compound 2 µM) was 1.07 and the relative viability (Calu-6; first compound 6.325 µM) was 1.02. For the same compound, the relative viability (Calu-6; first compound 20 µM) was 0.463, the relative viability (NCI-H1975; first compound 0.2 µM) was 0.457 and the relative viability (NCI-H1975; first compound 0.6325 µM) was 0.408. It also gave a relative viability (NCI-H1975; first compound 2 µM) of 0.399, a relative viability (NCI-H1975; first compound 6.325 µM) of 0.4 and a relative viability (NCI-H1975; first compound 20 µM) of 0.419. It also gave a relative viability (NCI-H1299; first compound 0.2 µM) of 1.06, a relative viability (NCI-H1299; first compound 0.6325 µM) of 1.02 and a relative viability (NCI-H1299; first compound 2 µM) of 0.96. For the same compound, the relative viability (NCI-H1299; first compound 6.325 µM) was 1.09, the relative viability (NCI-H1299; first compound 20 µM) was 0.996 and the relative viability (HARA; first compound 0.2 µM) was 1.24. For the same compound, the relative viability (HARA; first compound 0.6325 µM) was 0.704, the relative viability (HARA; first compound 6.325 µM) was 1.07 and the relative viability (HARA; first compound 20 µM) was 1.14. It also gave a relative viability (SK-LU-1; first compound 0.2 µM) of 1.42, a relative viability (SK-LU-1; first compound 0.6325 µM) of 1.07 and a relative viability (SK-LU-1; first compound 6.325 µM) of 1.2. The relative viability (SK-LU-1; first compound 20 µM) was 0.617.
